Measured values reported in US6562848B1, “Bis-amino acid sulfonamides as HIV protease inhibitors” (Bristol-Myers Squibb Company, priority 2001, dated 2003).

melting point: 205 to 206 °C
Compound: CC(C)CN(C[C@@H](O)[C@H](Cc1ccccc1)NC(=O)[C@@H](NC(=O)CNC(=O)C(C)C)C(C)(C)C)S(=O)(=O)c1ccc2c(c1)OCO2 (stereo in doubt)
